“And” between values parts separate entries of the source, which are not always exact repeats. Equal entries are not always repeated.
Experiments:
[1] = system: anterior segment of the eye; test: Ocular Irritation Test-1: modified Draize test and slit lamp examination; format: in vivo, Japanese White rabbit; set-up: key to Irritation Score of anterior segment of the eye: Palpebral conjunctival edema / Irritation Score of anterior segment of the eye: Bulbar conjunctival hyperemia / Irritation Score of anterior segment of the eye: Hyperemia of nictitating membrane / Irritation Score of anterior segment of the eye: Discharge / Slit lamp observation / Irritation Score of anterior segment of the eye: Flare of palpebral conjunctiva: +0.5: very slight; +1: slight; +2: moderate; +3: severe; —: No noteworthy findings; conditions: for slit lamp examination / irritation in anterior segment of the eye: 0.03% and 0.3% eye drops; for irritation in anterior segment of the eye: modified Draize test; for Irritation Score of anterior segment of the eye: Bulbar conjunctival hyperemia / Irritation Score of anterior segment of the eye: Discharge / Irritation Score of anterior segment of the eye: Flare of palpebral conjunctiva / Irritation Score of anterior segment of the eye: Hyperemia of nictitating membrane / Irritation Score of anterior segment of the eye: Palpebral conjunctival edema / Slit lamp observation: 50 μL/eye ten times at 30 minute intervals, 1 hour after last instillation
Description: 0.03% (w/v) and 0.3% (w/v) Compound 1 eye drops, and 0.03% (w/v) and 0.3% (w/v) Compound 3 eye drops were prepared in the same manner as Preparation of Test sample in Pharmacological test-2. Vehicle A was used for a vehicle group. 0.03% (w/v) and 0.3% (w/v) Compound 1 eye drops, 0.03% (w/v) and 0.3% (w/v) Compound 3 eye drops, and the vehicle were each instilled into the left eye of a Japanese White rabbit at a dose of 50 μL/eye with pipette ten times at 30 minute intervals. One hour after the final instillation, ocular irritation of anterior segment of the eye was evaluated according to the modified Draize test, and a slit lamp examination was performed. The contralateral eye was untreated. The ocular irritation of anterior segment of the eye was scored according to the following criteria: +0.5: very slight; +1: slight; +2: moderate; +3: severe

[2] = system: lens elasticity; test: Pharmacological Test-4: lens elasticity, once-daily instillation for 2 weeks; format: in vivo, C57BL/6J mice; conditions: for Lens elasticity improvement: once per day for 14 days, 8-month-old mice
Description: The effect of once-daily instillation of Compound 1 for 2 weeks on the lens elasticity was examined.
Compound 1 was stirred with the addition of Vehicle A to give a 0.3% (w/v) emulsion, and the emulsion was diluted with the diluent to give a 0.1% (w/v) emulsion. Further, the resulting 0.1% (w/v) emulsion was diluted with the diluent to give a 0.03% (w/v) emulsion. Further, the resulting 0.03% (w/v) emulsion was diluted with the diluent to give a 0.01% (w/v) emulsion.
EV06 was sonicated with the addition of Vehicle A to give a 1.5% (w/v) solution, which was used for comparison to Compound 1 sample.
1) Each test sample (2.5 μL/eye) was instilled into the right eye of 8-month-old C57BL/6J mice with a Pipetman once per day (around 9:00) for 14 days. 2) After the final instillation, the mice were euthanized by carbon dioxide inhalation, and then the eyeballs were extracted and rinsed with Hank's balanced salt solution (HESS). 3) The sclera near the optic nerve was cut with a razor, the lens was removed through the incision, and the removed lens was immersed in HESS. 4) The lens was placed on a glass slide, and an all-in-one fluorescence microscope BZ-9000 (Keyence) was used to capture an image of the lens (Image a). 5) Next, one cover glass (Corning^(registered trade mark) 22×22 mm Square) was placed on the lens, and an image in which the thickness of the lens changed due to the weight was similarly captured (Image b). 6) A change in the lens diameter was calculated from the following Equation 1 wherein the lens diameter of Image a is subtracted from the lens diameter of Image b. Then, the lens elasticity improvement of each sample group compared with the vehicle control group was calculated from Equation 2 described below. The mean value of the vehicle control group was based on 5 eyes, the mean value of each of the sample groups of compound 1 and EV06 was based on 10 eyes.
(§1) Change in lens diameter=Lens diameter in Image b of each test sample−Lens diameter in Image a of each test sample (Equation 1)
(§2) Lens elasticity improvement of each sample group=Mean change in lens diameter of each Test sample group−Mean change in lens diameter of Vehicle control group (Equation 2)

[3] = system: lens elasticity; test: Pharmacological Test-5: lens elasticity, once-daily instillation for 1 week; format: in vivo, C57BL/6J mice
Description: The effect of once-daily instillation of Compound for 1 week on the lens elasticity was examined.
Compound 1 was stirred with the addition of Vehicle C to give a 0.1% (w/v) solution. A 0.03% […] solution and a 0.01% (w/v) solution were prepared in the same manner.
1) Each test sample (2.5 μL/eye) was instilled into both eyes of 9-month-old C57BL/6J mice with a Pipetman once per day (around 9:00) for 7 days. 2) After the final instillation, the mice were euthanized by carbon dioxide inhalation, and then the eyeballs were extracted and rinsed with Hank's balanced salt solution (HBSS). 3) The sclera near the optic nerve was cut with a razor, the lens was removed through the incision, and the removed lens was immersed in HESS. 4) The lens was placed on a glass slide, and an all-in-one fluorescence microscope BZ-9000 (Keyence) was used to capture an image of the lens (Image a). 5) Next, one cover glass (Corning^(registered trade mark) 22×22 mm Square) was placed on the lens, and an image in which the thickness of the lens changed due to the weight was similarly captured (Image b). 6) A change in the lens diameter was calculated from the following Equation 1 wherein the lens diameter of Image a is subtracted from the lens diameter of Image b. Then, the lens elasticity improvement of each sample group compared with the vehicle control group was calculated from Equation 2 described below. The mean value of the vehicle control group was based on 10 eyes, the mean values of Compound 1 sample group were based on 10 eyes.
as §1, §2

O=C(CCCC[C@@H]1CCSS1)OCCN1CCN(CCO)CC1 [Compound 3]
slit lamp examination [1]: No abnormalities were observed | irritation in anterior segment of the eye [1]: low | Irritation Score of anterior segment of the eye: Bulbar conjunctival hyperemia ([1]; 0.03% eye drop): +1 | Irritation Score of anterior segment of the eye: Discharge ([1]; 0.03% eye drop): +1 | Irritation Score of anterior segment of the eye: Flare of palpebral conjunctiva ([1]; 0.03% eye drop): +1 | Irritation Score of anterior segment of the eye: Hyperemia of nictitating membrane ([1]; 0.03% eye drop): +1 | Irritation Score of anterior segment of the eye: Palpebral conjunctival edema ([1]; 0.03% eye drop): +0.5 | Slit lamp observation ([1]; 0.03% eye drop): — | Irritation Score of anterior segment of the eye: Bulbar conjunctival hyperemia ([1]; 0.3% eye drop): +1 and +2 | Irritation Score of anterior segment of the eye: Discharge ([1]; 0.3% eye drop): +1 | Irritation Score of anterior segment of the eye: Flare of palpebral conjunctiva ([1]; 0.3% eye drop): +1 | Irritation Score of anterior segment of the eye: Hyperemia of nictitating membrane ([1]; 0.3% eye drop): +1 | Irritation Score of anterior segment of the eye: Palpebral conjunctival edema ([1]; 0.3% eye drop): +1 and +0.5 | Slit lamp observation ([1]; 0.3% eye drop): —

CC(C)=CCOC(=O)CCCC[C@@H]1CCSS1 [Compound 1, 3-Methyl-2-buten-1-yl (R)-5-(1,2-dithiolan-3-yl)pentanoate]
Lens elasticity improvement ([2]; 0.01% (w/v) emulsion): 12.2 μm | Lens elasticity improvement ([2]; 0.03% (w/v) emulsion): 33.8 μm | lens elasticity improvement compared with 1.5% EV06 group ([2]; 0.03%, 0.1% and 0.3% sample groups, instilled once-daily): excellent results compared to 1.5% EV06 group | Lens elasticity improvement ([2]; 0.1% (w/v) emulsion): 34.1 μm | Lens elasticity improvement ([2]; 0.3% (w/v) emulsion): 39.8 μm | Lens elasticity improvement ([3]; 0.01% (w/v) solution in Vehicle C, both eyes, once per day for 7 days, 9-month-old mice): 10.6 μm | Lens elasticity improvement ([3]; 0.03% solution in Vehicle C, both eyes, once per day for 7 days, 9-month-old mice): 20.3 μm | Lens elasticity improvement ([3]; 0.1% (w/v) solution in Vehicle C, both eyes, once per day for 7 days, 9-month-old mice): 60.1 μm | Lens elasticity improvement ([3]; concentration of 0.1%, once-daily for 1 week): potent lens elasticity improvement | slit lamp examination [1]: No abnormalities were observed | irritation in anterior segment of the eye [1]: No irritation was observed | Irritation Score of anterior segment of the eye: Bulbar conjunctival hyperemia ([1]; 0.03% eye drop): — | Irritation Score of anterior segment of the eye: Discharge ([1]; 0.03% eye drop): — | Irritation Score of anterior segment of the eye: Flare of palpebral conjunctiva ([1]; 0.03% eye drop): — | Irritation Score of anterior segment of the eye: Hyperemia of nictitating membrane ([1]; 0.03% eye drop): — | Irritation Score of anterior segment of the eye: Palpebral conjunctival edema ([1]; 0.03% eye drop): — | Slit lamp observation ([1]; 0.03% eye drop): — | Irritation Score of anterior segment of the eye: Bulbar conjunctival hyperemia ([1]; 0.3% eye drop): — | Irritation Score of anterior segment of the eye: Discharge ([1]; 0.3% eye drop): — | Irritation Score of anterior segment of the eye: Flare of palpebral conjunctiva ([1]; 0.3% eye drop): — | Irritation Score of anterior segment of the eye: Hyperemia of nictitating membrane ([1]; 0.3% eye drop): — | Irritation Score of anterior segment of the eye: Palpebral conjunctival edema ([1]; 0.3% eye drop): — | Slit lamp observation ([1]; 0.3% eye drop): —

C[N+](C)(C)CCOC(=O)CCCC[C@@H]1CCSS1.[Cl-] [EV06, Lipoic acid choline ester, reference compound]
Lens elasticity improvement ([2]; 1.5% (w/v) solution in Vehicle A): 5.8 μm

From US20220151989A1, “LIPOIC ACID PRODRUG” (SANTEN PHARMACEUTICAL CO., LTD., priority 2019, published 2022)
